Measurements from patent US9403806B1, “Cognition enhancing compounds and compositions, methods of making, and methods of treating” (NeuroSolis, Inc., priority 2010, dated 2016).

Tests used:
[1] = Metabolites in serum and urine of dosed rats (LC-MS); format: in vivo; conditions: rat serum or urine, 10 mg/kg po
Method: Oxadiazoles disclosed herein as well as other oxadiazoles were investigated to determine the formation of metabolites. Animals were dosed, blood taken, serum prepared, serum proteins precipitated and ultrafiltrates prepared as described in Example 6. In separate experiments, urine was collected from rats for 16-24 hours after dosing, using standard metabolic cages. The urine container and collected urine were maintained at 4° C. Urine was lyophilized, taken back into water. The uftrafiltrate was prepared by adding formic acid to a final concentration of 1% to the urine samples, then filtered through a 0.2 um nylon membrane. The ultrafiltrate was subjected to LC-MS analysis. Instead of measuring the product ions in Q3, manual Q1 scans of the liquid chromatograph were undertaken, seeking parent ions of potential metabolites of the compounds. The criteria for identifying metabolites were as follows: (1) the ion should be present in the sera or urines of dosed rats, but not in sera or urines from non-dosed rats (2) the ion should be identifiable as a metabolic derivative of the dosed compound (e.g. loss of a functional chemical moiety, addition of a hydroxyl group or a glucuronic acid moiety, etc). Metabolites were determined not to be present if no compound meeting the above criteria could be detected in serum or urine.

[2] = Plasma concentration in rats, iontophoresis patch versus oral gavage; format: in vivo, Long Evans Hooded rat; conditions: rat
Excerpt: Two patches were made up, consisting (in order from the outer layer to the skin contacting surface, respectively): adhesive tape (Transpore, 27 mm wide, 3M), circular stainless steel electrodes (22 mm dia) with a central hole for a stainless steel machine screw to which the electrode wire was attached, and 2 layers of 3MM CHR filter paper (Cat #3030-861, Whatman International, Ltd).
The mid-dorsal area of a Long Evans Hooded rat (approximate weight, 320 grams), surgically prepared with a jugular vein catheter (Charles River), was shaved and the skin was then cleaned using an Electrode Prep Pad (Professional Disposables, Inc, Cat #B59800). […]
Blood (400 μl) was withdrawn from the catheters in each rat every 30 minutes, transferred to 1.5 ml centrifuge tubes containing heparin (15 units/tube), and the plasma was separated by centrifugation from the cellular components. The plasma samples were maintained at 4 deg C. until analyzed. […]
The ultra-filtrates were subjected to reverse-phase liquid chromatography using a 150×2.1 mm Agilent C8 reverse-phase column on a Shimadzu Prominence LC, eluting the MCD-386 with an isocratic flow of 2% acetonitrile+0.1% formic acid. The concentration of MCD-386 in the column effluent was measured using an Applied Biosystems API-3200 triple quadrupole mass spectrometer equipped with a Turbo V source (electrospray sample injection) system. […]

PAMPA test, Example 34 = conditions: PAMPA
rat M3 receptors = target: T1, rat M3 receptors (Rattus norvegicus, UniProt P08483); assay: PI turnover (inositol phosphate production) in M3-CHO cells; format: cell-based; conditions: mean Smax relative to carbachol (100.0); CHO cells expressing rat M3
T1 construct: host or cells: CHO (M3-CHO)
Method: The medium was changed to 70 μL/well of inositol-free DMEM containing 2 mM glutamine, 10% FBS and 10 μCi/ml of [3H]-inositol (PE:cat # NET114A250UC), incubated overnight as above, then 100 μL of a solution of the test compound in HBSS containing 10 mM LiCl and 20 mM HEPES, pH 7.4 was added, incubation was continued for 60 min under the above conditions, and the test was stopped by removing the test compound and replacing with 100 μL of 50 mM formic acid in water at 4° C. […] The compounds in Table 1 are all dihydropyrimidine-oxadiazoles which vary only at the oxadiazole side chain.

[3] = test system: hippocampal inositol phosphate; assay: In vivo tissue inositol phosphate signaling pathway activation, hippocampus; set-up: species or system Long Evans Hooded rats; conditions: rats, 30 mg/kg sc (FIG. 10B)
Method: Experimental compounds or drug substances were administered using standard techniques to Long Evans Hooded rats weighing 225 to 350 grams, and which had been pretreated with a subcutaneous injection of lithium chloride at a suitable dose between 3 and 10 mmoles per kg. At suitable times the animals were briefly anesthetized using 5% isoflurane and euthanized by decapitation. The brains and submaxillary salivary glands were rapidly dissected out, and the hippocampuses were dissected from the brains. The dissected tissues were homogenized in a suitable volume of ice-cold phosphate-buffered saline containing 10 mM lithium chloride, pH7.4, using a tissue homogenizer, and used immediately or frozen in aliquots at −80 deg C. for future use. The concentration of inositol-1-phosphate was determined in the homogenates using the IPOne TR-FRET assay (CisBio cat no 621PAPEB), following the manufacturer's instruction

[4] = Blood and brain concentrations (rats), oral gavage; format: in vivo, Long-Evans Hooded rats; conditions: rat, 10 mg/kg po, 1 hr, relative to MCD-386 = 1.00
Method: Long-Evans Hooded rats (Charles River: male, 250-350 g) were dosed with solutions of test compounds in PBS by oral gavage. At the desired time after dosing, the animals were anesthetized with isoflurane, and then euthanized by cervical dislocation. Blood was obtained by cardiac puncture, transferred to a 1.5 mL microcentrifuge tube containing 15U Heparin, and the plasma recovered after centrifugation. Brains were dissected, weighed, immediately chilled to 4° C., and homogenized using a PowerGen 125 homogenizer in five volumes of ice-cold 2% formic acid. Proteins were precipitated from plasma and brain homogenate with two and five volumes respectively of ice-cold 2% formic acid and clarified by centrifugation. The supernatant was ultra-filtered by centrifugation through a 3K MWCO spin column (Pall Life Sciences), following the manufacturer's instructions. The concentration of compound in the ultra-filtrate was subjected to reverse-phase liquid chromatography using a 150×2.1 mm Agilent C8 reverse-phase column on a Shimadzu Prominence LC, eluting the compounds with a gradient of 2% to 50% of acetonitrile+0.1% formic acid for compound MI-50,382, or an isocratic flow of 2% acetonitrile+0.1% formic acid for the rest of the compounds listed. The concentration of the compound in the column effluent was measured using an Applied Biosystems API-3200 triple quadrupole mass spectrometer equipped with an electrospray sample injection system. The counts of the characteristic parent and product ions of each test compound were converted to concentration units by comparison with a standard calibration curve.

T1 sequence (P08483 whole entry): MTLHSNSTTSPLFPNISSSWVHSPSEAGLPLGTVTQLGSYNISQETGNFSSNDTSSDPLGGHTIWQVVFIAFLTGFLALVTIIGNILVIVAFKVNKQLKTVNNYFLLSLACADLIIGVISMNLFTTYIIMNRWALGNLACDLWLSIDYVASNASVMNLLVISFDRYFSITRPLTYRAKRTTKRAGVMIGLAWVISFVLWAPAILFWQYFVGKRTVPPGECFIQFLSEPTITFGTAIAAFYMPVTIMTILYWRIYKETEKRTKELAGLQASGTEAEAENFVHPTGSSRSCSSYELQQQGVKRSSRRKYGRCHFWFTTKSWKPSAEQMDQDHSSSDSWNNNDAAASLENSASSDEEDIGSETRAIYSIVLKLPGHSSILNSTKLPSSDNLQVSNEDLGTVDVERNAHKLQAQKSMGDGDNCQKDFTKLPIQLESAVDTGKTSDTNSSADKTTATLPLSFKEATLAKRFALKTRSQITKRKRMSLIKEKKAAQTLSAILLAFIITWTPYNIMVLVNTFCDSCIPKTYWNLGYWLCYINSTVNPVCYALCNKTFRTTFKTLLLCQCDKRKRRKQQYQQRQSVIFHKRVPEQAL

- Presence of metabolites (10 mg/kg po) [1]: Yes
- bioavailability by transdermal delivery versus oral administration [2]: up to three times higher
- Plasma Concentration ([2]; iontophoresis patch, dose 3.2 mg/kg, 30 minutes): 848 nM
- Papp (PAMPA test, Example 34): 0.05 ×10⁻⁶ cm/s
- M3/CHO PI turnover Relative Mean Smax (rat M3 receptors): 46.4
- Brain Cmax (10 mg/kg po) 1 hr MCD-386 = 1.00 [4]: 1.00
Structure (SMILES): CCc1noc(C2CN=CNC2)n1 (stereo not shown) [MCD-386, 3-ethyl-5-(1,4,5,6-tetrahydropyrimidin-5-yl)-1,2,4-oxadiazole]
- increase in the concentration of IP in the hippocampus [3]: 71%
